Data on 12 compounds can be found in PubChem BioAssay (NCI).

Some test systems named below: 786-0 renal; A549 NSCLC; BT-549 breast; DU-145 prostate; HS 578T breast; IGROV1 ovarian; OVCAR-5 ovarian; RXF 393 renal; SF-539 CNS; SK-MEL-2 melanoma; SK-MEL-5 melanoma; UACC-257 melanoma.
What all share (test): NCI anticancer screen, dose series, 48 h

Each structure is given as a SMILES string.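 Test compounds were applied to cells in 96-well plates for 48 hours at 5 doses. TGI denotes the concentration required for complete inhibition of growth.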 Bounds are passed on as bounds.

With `CC(=O)Nc1ncc(Sc2ccccc2C(=O)O)s1`, the TGI with 786-0 renal, in the test with A549 NSCLC, in the test with BT-549 breast, in the test on DU-145 prostate, in the test on HS 578T breast and in the test with IGROV1 ovarian was above 100 µM each time. For the same compound, the TGI in the test on OVCAR-5 ovarian, with RXF 393 renal, with SF-539 CNS, in the test with SK-MEL-2 melanoma, in the test with SK-MEL-5 melanoma and in the test with UACC-257 melanoma was above 100 µM each time.
Turning to `Cc1csc2nc(-c3ccc([N+](=O)[O-])cc3)c(/C=N/N=C(N)N)n12`, the TGI was 3.24 µM in the test with 786-0 renal; 3.2 µM in the test on A549 NSCLC; 0.211 µM in the test on BT-549 breast; 4.3 µM in the test with DU-145 prostate; 3.15 µM in the test with HS 578T breast; 2.75 µM with IGROV1 ovarian. Moreover, the TGI in the test on OVCAR-5 ovarian was determined as 2.85 µM; in the test with RXF 393 renal, 3.45 µM; in the test with SF-539 CNS, 3.08 µM; in the test with SK-MEL-2 melanoma, 2.86 µM; in the test on SK-MEL-5 melanoma, 3.96 µM; with UACC-257 melanoma it was 3.05 µM.
With `O=C1c2cc3ccccc3cc2C2(c3ccc(Cl)cc3)N[C@H]3CCCC[C@@H]3N12` (stereo not given in full), the TGI was determined as 23.3 µM in the test with 786-0 renal; 36.3 µM in the test with A549 NSCLC; 36.9 µM with BT-549 breast; 60.2 µM in the test with DU-145 prostate; 27.9 µM in the test with HS 578T breast; 30.6 µM in the test on IGROV1 ovarian. Moreover, the TGI in the test with OVCAR-5 ovarian turned out to be 60.2 µM; in the test with RXF 393 renal it was 24.2 µM; with SF-539 CNS it was 21.8 µM; in the test on SK-MEL-2 melanoma it was 35.4 µM; in the test with SK-MEL-5 melanoma it was 42.8 µM; in the test on UACC-257 melanoma it was 48 µM.
For `CCOP(=O)(Nc1ccc(-c2ccccc2)cc1)OCC`, the TGI in the test with 786-0 renal, with A549 NSCLC, in the test with BT-549 breast, in the test on DU-145 prostate, in the test on HS 578T breast and in the test on IGROV1 ovarian was above 100 µM each time. The TGI in the test with OVCAR-5 ovarian, in the test with RXF 393 renal, in the test with SK-MEL-2 melanoma, with SK-MEL-5 melanoma and in the test with UACC-257 melanoma was above 100 µM throughout.
As for `COc1ccc(Cc2nc3cc(C(F)(F)F)ccc3n2CCCN(C)C)cc1`, the TGI is 38.9 µM with A549 NSCLC; 43.4 µM with BT-549 breast; 40.4 µM with DU-145 prostate; 43.1 µM in the test on HS 578T breast; 78.9 µM with IGROV1 ovarian; above 100 µM with OVCAR-5 ovarian. Besides, the TGI in the test with RXF 393 renal came out at 29.2 µM; with SK-MEL-2 melanoma it was 36.1 µM; in the test with SK-MEL-5 melanoma, 30.1 µM; in the test on UACC-257 melanoma it was 33.2 µM.
In the case of `C1COC(NC(C2CC2)C2CC2)=N1`, the TGI with 786-0 renal, with A549 NSCLC, in the test on BT-549 breast, with DU-145 prostate, in the test on HS 578T breast and with IGROV1 ovarian was above 100 µM each time. Further, the TGI in the test on OVCAR-5 ovarian, with RXF 393 renal, with SF-539 CNS, with SK-MEL-2 melanoma, in the test on SK-MEL-5 melanoma and with UACC-257 melanoma was above 100 µM in each case.
`N#Cc1c(-c2ccccc2)/c(=C\O)c(=O)n2c1nc1ccccc12`: the TGI is above 100 µM in the test on 786-0 renal; above 100 µM in the test with A549 NSCLC; above 100 µM in the test on BT-549 breast; above 100 µM in the test with DU-145 prostate; 91.8 µM in the test with HS 578T breast; above 100 µM in the test with IGROV1 ovarian. Besides, the TGI in the test with OVCAR-5 ovarian, in the test with RXF 393 renal, in the test on SF-539 CNS, in the test on SK-MEL-2 melanoma, in the test on SK-MEL-5 melanoma and in the test on UACC-257 melanoma was above 100 µM each time.
As to `O=C(c1cc(Cl)cc(Cl)c1)N(C(=S)OC12CC3CC(CC(C3)C1)C2)c1ccccc1`, the TGI with 786-0 renal, in the test on A549 NSCLC, in the test with BT-549 breast, with DU-145 prostate, in the test on HS 578T breast and in the test with OVCAR-5 ovarian was above 100 µM in each case. For the same compound, the TGI with RXF 393 renal was above 100 µM; in the test with SF-539 CNS, above 100 µM; in the test with SK-MEL-2 melanoma, 41.6 µM; in the test on SK-MEL-5 melanoma it was above 100 µM; in the test with UACC-257 melanoma, above 100 µM.
In the case of `O=P(O)(O)C(O)/C=C/c1ccccc1` (stereo not given), the TGI with 786-0 renal, in the test on A549 NSCLC, with BT-549 breast, in the test with DU-145 prostate, in the test on HS 578T breast and in the test with IGROV1 ovarian was above 100 µM each time. Also, the TGI with OVCAR-5 ovarian, with RXF 393 renal, with SK-MEL-2 melanoma, in the test with SK-MEL-5 melanoma and in the test with UACC-257 melanoma was above 100 µM throughout.
For `CC1CCCC2=C1C(c1ccc(Cl)cc1)n1c(s/c(=C\c3ccc(Cl)cc3)c1=O)=N2` (stereo not given), the TGI with 786-0 renal, with A549 NSCLC, with BT-549 breast, in the test on DU-145 prostate, in the test on HS 578T breast and in the test with IGROV1 ovarian was above 100 µM in each case. The TGI with OVCAR-5 ovarian, with RXF 393 renal, in the test on SK-MEL-2 melanoma, with SK-MEL-5 melanoma and in the test with UACC-257 melanoma was above 100 µM in each case.
Consider `O=C1C2C=CC1C1C(=O)OC(=O)C21` (stereo not given), for which the TGI with 786-0 renal, in the test with A549 NSCLC, in the test on BT-549 breast, with DU-145 prostate, with HS 578T breast and with IGROV1 ovarian was above 100 µM in each case. Also, the TGI in the test with OVCAR-5 ovarian, with SF-539 CNS, in the test with SK-MEL-2 melanoma, in the test on SK-MEL-5 melanoma and with UACC-257 melanoma was above 100 µM in each case.
In the case of `Cc1cccc(Nc2cn(COCc3ccccc3)c(=O)[nH]c2=O)c1`, the TGI in the test on 786-0 renal, in the test with A549 NSCLC, with BT-549 breast, in the test on DU-145 prostate, with HS 578T breast and in the test with IGROV1 ovarian was above 100 µM throughout. In addition, the TGI in the test on OVCAR-5 ovarian, in the test with RXF 393 renal, in the test on SK-MEL-5 melanoma and in the test with UACC-257 melanoma was above 100 µM throughout.
